Results as given in ChEMBL document CHEMBL1201862, “PubChem BioAssay data set” (2004).
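Five concentrations, 48 hours, 96-well plates. GI50: concentration for 50% inhibition of growth.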 Active and inactive are the calls of the source. No stated cut-off is given here; in the data, active = GI50 up to about 1.1 µM and inactive = higher.

Columns and labels:
Experiment in all cases: NCI tumour cell line growth inhibition, 48 h
786-0 = test system: 786-0
A498 = test system: A498
A549 = test system: A549
ACHN = test system: ACHN
CAKI-1 = test system: CAKI-1
CCRF-CEM = test system: CCRF-CEM
COLO 205 = test system: COLO 205
DMS-114 = test system: DMS-114
DMS-273 = test system: DMS-273
EKVX = test system: EKVX
HCT-116 = test system: HCT-116
HCT-15 = test system: HCT-15
HL-60 = test system: HL-60
HOP-18 = test system: HOP-18
HOP-62 = test system: HOP-62
HOP-92 = test system: HOP-92
HT-29 = test system: HT-29
IGROV-1 = test system: IGROV-1
K562 = test system: K562
KM-20L2 = test system: KM-20L2
KM12 = test system: KM12
LOX IMVI = test system: LOX IMVI
LXFL 529 = test system: LXFL 529
M14 = test system: M14
M19-MEL = test system: M19-MEL
MOLT-4 = test system: MOLT-4
Malme-3M = test system: Malme-3M
NCI-H226 = test system: NCI-H226
NCI-H23 = test system: NCI-H23
NCI-H460 = test system: NCI-H460
NCI-H522 = test system: NCI-H522
OVCAR-3 = test system: OVCAR-3
OVCAR-4 = test system: OVCAR-4
OVCAR-5 = test system: OVCAR-5
OVCAR-8 = test system: OVCAR-8
RPMI-8226 = test system: RPMI-8226
RXF 393 = test system: RXF 393
RXF 631 = test system: RXF 631
SF-268 = test system: SF-268
SF-295 = test system: SF-295
SF-539 = test system: SF-539
SK-MEL-28 = test system: SK-MEL-28
SK-MEL-2 = test system: SK-MEL-2
SK-MEL-5 = test system: SK-MEL-5
SK-OV-3 = test system: SK-OV-3
SN12C = test system: SN12C
SNB-19 = test system: SNB-19
SNB-75 = test system: SNB-75
SNB-78 = test system: SNB-78
SW-620 = test system: SW-620
TK-10 = test system: TK-10
U-251 = test system: U-251
UACC-257 = test system: UACC-257
UACC-62 = test system: UACC-62
UO-31 = test system: UO-31
XF498 = test system: XF498
DLD-1 = test system: DLD-1
HCC 2998 = test system: HCC 2998

## C[C@]12CCC3[C@@H](CC[C@@H]4c5nonc5CC[C@]34C)C1C/C(=N/O)C2=O (stereo partly specified)
786-0
  GI50: > 100 µM (inactive)
A498
  GI50: > 100 µM (inactive)
A549
  GI50: > 100 µM (inactive)
ACHN
  GI50: 41 µM (inactive)
CAKI-1
  GI50: 4.34 µM (inactive)
CCRF-CEM
  GI50: 56.5 µM (inactive)
COLO 205
  GI50: > 100 µM (inactive)
DMS-114
  GI50: > 100 µM (inactive)
DMS-273
  GI50: > 100 µM (inactive)
EKVX
  GI50: 52.5 µM (inactive)
HCT-116
  GI50: > 100 µM (inactive)
HCT-15
  GI50: > 100 µM
HL-60
  GI50: 2.12 µM (inactive)
HOP-18
  GI50: > 100 µM (inactive)
HOP-62
  GI50: > 100 µM (inactive)
HOP-92
  GI50: 46.5 µM (inactive)
HT-29
  GI50: > 100 µM (inactive)
IGROV-1
  GI50: > 100 µM (inactive)
K562
  GI50: > 100 µM (inactive)
KM-20L2
  GI50: > 100 µM (inactive)
KM12
  GI50: > 100 µM (inactive)
LOX IMVI
  GI50: 11.2 µM (inactive)
LXFL 529
  GI50: 18.6 µM (inactive)
M14
  GI50: 63.5 µM (inactive)
M19-MEL
  GI50: > 100 µM (inactive)
MOLT-4
  GI50: 59.7 µM (inactive)
Malme-3M
  GI50: > 100 µM (inactive)
NCI-H226
  GI50: > 100 µM (inactive)
NCI-H23
  GI50: > 100 µM (inactive)
NCI-H460
  GI50: > 100 µM (inactive)
NCI-H522
  GI50: 24.6 µM (inactive)
OVCAR-3
  GI50: 39.7 µM (inactive)
OVCAR-4
  GI50: 76 µM (inactive)
OVCAR-5
  GI50: > 100 µM (inactive)
OVCAR-8
  GI50: > 100 µM (inactive)
RPMI-8226
  GI50: 9.48 µM (inactive)
RXF 393
  GI50: 14.1 µM (inactive)
RXF 631
  GI50: > 100 µM (inactive)
SF-268
  GI50: 11.2 µM (inactive)
SF-295
  GI50: 52.2 µM (inactive)
SF-539
  GI50: 71 µM (inactive)
SK-MEL-28
  GI50: 27.1 µM (inactive)
SK-MEL-2
  GI50: 1.53 µM (inactive)
SK-MEL-5
  GI50: > 100 µM (inactive)
SK-OV-3
  GI50: 38.8 µM (inactive)
SN12C
  GI50: > 100 µM (inactive)
SNB-19
  GI50: > 100 µM (inactive)
SNB-75
  GI50: 0.0885 µM (active)
SNB-78
  GI50: > 100 µM (inactive)
SW-620
  GI50: > 100 µM (inactive)
TK-10
  GI50: 51.1 µM (inactive)
U-251
  GI50: > 100 µM (inactive)
UACC-257
  GI50: > 100 µM (inactive)
UACC-62
  GI50: 63.7 µM (inactive)
UO-31
  GI50: 5.41 µM (inactive)
XF498
  GI50: 11.5 µM (inactive)

## O=[N+]([O-])c1cccc(C(O)/C(=N/O)c2nc3ccc(Cl)cc3nc2O)c1 (stereo unspecified)
786-0
  GI50: > 100 µM (inactive)
A549
  GI50: > 100 µM (inactive)
ACHN
  GI50: > 100 µM (inactive)
CCRF-CEM
  GI50: > 100 µM (inactive)
COLO 205
  GI50: > 100 µM (inactive)
DLD-1
  GI50: > 100 µM (inactive)
DMS-114
  GI50: > 100 µM (inactive)
EKVX
  GI50: > 100 µM (inactive)
HCC 2998
  GI50: > 100 µM (inactive)
HCT-116
  GI50: > 100 µM (inactive)
HL-60
  GI50: > 100 µM (inactive)
HOP-18
  GI50: > 100 µM (inactive)
HOP-62
  GI50: > 100 µM (inactive)
HOP-92
  GI50: > 100 µM (inactive)
HT-29
  GI50: > 100 µM (inactive)
IGROV-1
  GI50: > 100 µM (inactive)
K562
  GI50: > 100 µM (inactive)
KM-20L2
  GI50: > 100 µM (inactive)
KM12
  GI50: > 100 µM (inactive)
LOX IMVI
  GI50: > 100 µM (inactive)
LXFL 529
  GI50: > 100 µM (inactive)
M14
  GI50: > 100 µM (inactive)
M19-MEL
  GI50: > 100 µM (inactive)
MOLT-4
  GI50: > 100 µM (inactive)
Malme-3M
  GI50: > 100 µM (inactive)
NCI-H226
  GI50: > 100 µM (inactive)
NCI-H23
  GI50: > 100 µM (inactive)
NCI-H460
  GI50: > 100 µM (inactive)
NCI-H522
  GI50: > 100 µM (inactive)
OVCAR-3
  GI50: > 100 µM (inactive)
OVCAR-4
  GI50: > 100 µM (inactive)
OVCAR-5
  GI50: > 100 µM (inactive)
OVCAR-8
  GI50: > 100 µM (inactive)
RPMI-8226
  GI50: > 100 µM (inactive)
RXF 393
  GI50: > 100 µM (inactive)
RXF 631
  GI50: > 100 µM (inactive)
SF-295
  GI50: > 100 µM (inactive)
SF-539
  GI50: > 100 µM (inactive)
SK-MEL-28
  GI50: > 100 µM (inactive)
SK-MEL-5
  GI50: > 100 µM (inactive)
SK-OV-3
  GI50: > 100 µM (inactive)
SN12C
  GI50: > 100 µM (inactive)
SNB-19
  GI50: > 100 µM (inactive)
SNB-75
  GI50: > 100 µM (inactive)
SW-620
  GI50: > 100 µM (inactive)
TK-10
  GI50: > 100 µM (inactive)
UACC-257
  GI50: > 100 µM (inactive)
UACC-62
  GI50: > 100 µM (inactive)
UO-31
  GI50: > 100 µM (inactive)
XF498
  GI50: > 100 µM (inactive)
